This is an account of results in article PMC7489893, “A small molecule inhibitor of HER3: a proof-of-concept study” (Biochemical Journal, 2020).

Where two headings read alike, the source gives them in different places. A value given as a limit tells only on which side of the number the result lay.

Test [1] concerns the target T1, HER3 (Homo sapiens, UniProt P21860).
T1 sequence (P21860 684-1020): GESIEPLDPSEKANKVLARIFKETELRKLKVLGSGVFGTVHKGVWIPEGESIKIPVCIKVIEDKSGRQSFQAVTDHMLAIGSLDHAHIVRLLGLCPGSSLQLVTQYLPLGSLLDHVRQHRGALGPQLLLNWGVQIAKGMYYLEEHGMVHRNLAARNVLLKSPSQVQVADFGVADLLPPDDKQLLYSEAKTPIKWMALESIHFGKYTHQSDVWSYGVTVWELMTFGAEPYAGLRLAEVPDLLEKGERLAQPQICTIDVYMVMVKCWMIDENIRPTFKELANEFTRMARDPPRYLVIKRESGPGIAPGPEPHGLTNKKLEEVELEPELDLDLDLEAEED
Description: biochemical. To be noted: read-out: ΔTm (°C) HER3 deconvolution screen. The arrangement: gene ERBB3; HER3 kinase domain (residues G684-D1020); differential scanning fluorimetry with SYPRO Orange, HER3 Tm shift, single-compound deconvolution screen. The procedure: Thermal shift assays were performed using a QuantStudio7 Flex Real-Time PCR instrument (Applied Biosystems, ThermoFischer Scientific) scanning from 15°C to 75°C in 0.5°C increments every 30 s after an initial incubation at 15°C for 1 min. Fluorescence was measured at the end of each 30 s period with an excitation wavelength of 470 nm and an emission wavelength of 620 nm. HER3 and HER2 kinase domain recombinant proteins were diluted in 50 mM Hepes pH 7.5, 150 mM NaCl, 5% glycerol and 1 mM DTT to a concentration of 1.5 μM and then incubated with the indicated concentration of compounds in a total reaction volume of 10 μl, with a final concentration of 2.5X SYPRO Orange (ThermoFisher Scientific) as fluorescence probe. […] Having established a robust screening platform, a total of 107 008 small molecule compounds were screened as mixtures of four compounds per well (a total of 26 752 wells) at 30 μM each in a primary library screen. […] In the second step of screening, hit pools of compounds were arrayed as individual compounds and 3119 compounds (2835 hits plus 284 compounds from failed wells from the primary screen) were assessed at 30 μM, using the same thermal shift assay settings as for the primary screen (0.3% DMSO as neutral controls reflecting the single compound use, 200 μM ATP/10 mM MgCl2 as positive controls) applying again a cut-off value of ΔTm > 3°C (Figure 1C). […]

The target in test [2] is T1, HER3. Description: biochemical. The arrangement: gene ERBB3; HER3 kinase domain (residues G684-D1020); differential scanning fluorimetry with SYPRO Orange, shift in HER3 kinase domain Tm. How it is done: Thermal shift assays were performed using a QuantStudio7 Flex Real-Time PCR instrument (Applied Biosystems, ThermoFischer Scientific) scanning from 15°C to 75°C in 0.5°C increments every 30 s after an initial incubation at 15°C for 1 min. Fluorescence was measured at the end of each 30 s period with an excitation wavelength of 470 nm and an emission wavelength of 620 nm. HER3 and HER2 kinase domain recombinant proteins were diluted in 50 mM Hepes pH 7.5, 150 mM NaCl, 5% glycerol and 1 mM DTT to a concentration of 1.5 μM and then incubated with the indicated concentration of compounds in a total reaction volume of 10 μl, with a final concentration of 2.5X SYPRO Orange (ThermoFisher Scientific) as fluorescence probe. […] Hit compounds stabilising HER3 were then evaluated for their relative binding affinity in a dose–response thermal shift assay at 1, 3, 10 and 30 μM (Supplementary Figure S2C). […] The proof-of-concept compound was confirmed as a HER3 binder inducing a shift in HER3 Tm of over 3°C with the dose–response indicating an estimated IC50 of 4 μM (Figure 1D and Supplementary Table S2). Near neighbours of those 109 hits were selected and 663 new compounds were screened in duplicate for their relative potency at 1, 3, 10 and 30 μM by thermal shift assay. From those, 446 compounds passed the selection criteria, i.e. induced shift in HER3 Tm > 3°C below 10 μM (data not shown). Figure 1. A differential scanning fluorimetry (DSF) assay compound screen identifies 428 HER3-preferential binders from a 107 008 compound library. (A) Overview of the screening strategy and hit rate for each step of the screening cascade. […] ApoHER3 (HER3 kinase domain with no ligand) was used as a control for all DSF analyses (mean of ApoHER3 Tm across the plates set at ΔTm = 0°C is indicated by the dash green line) and ΔTm values were calculated for each pool of compounds tested at 30 μM each (N = 1). Cut-off values of ΔTm>3°C and ΔTm < −5°C were used to designate hits (shown as dashed pink lines). The pool of compounds containing proof-of-concept compound AC3573 is circled. Gaps indicate the rare plate failures (three plates). Compounds from these plates were retested during the deconvolution screen. (C) Correlation of shift in HER3 Tm value induced by deconvoluted pool compounds tested at 30 μM between the two repeats of deconvolution screening. AC3573 and its three pool compounds are highlighted. (D) Dose-dependent analysis of thermal shifts induced by AC3573 compound tested at 1, 3, 10 and 30 μM in the HER3 potency screen. The change in HER3 Tm value (ΔTm), compared with ApoHER3 control, is reported as mean ± SD from N = 4 independent experiments. […]

The next test concerns the target T2, HER2 kinase domain (Homo sapiens, UniProt P04626).
T2 construct: gene ERBB2; kinase domain, ThermoFisher in vitro kinase assay
Kind of test: biochemical. The arrangement: in vitro HER2 kinase inhibition assay at the Km for ATP (ThermoFisher). The conditions noted are these: at Km for ATP; read-out: Activity against HER2, IC50. From the text: Since the readout for HER3 function in cells required HER2 activity, it was critical to confirm HER2 inactivity of these compounds.

The next test has as its target T3, HER2 (Homo sapiens, UniProt P04626, M706A/M712L/Q711L).
T3 construct: gene ERBB2; HER2 kinase domain (S703-G1029)
Kind of test: biochemical. More on the design: differential scanning fluorimetry with SYPRO Orange, shift in HER2 kinase domain Tm (counter screen). The conditions noted are these: counter screen. How it is done: Thermal shift assays were performed using a QuantStudio7 Flex Real-Time PCR instrument (Applied Biosystems, ThermoFischer Scientific) scanning from 15°C to 75°C in 0.5°C increments every 30 s after an initial incubation at 15°C for 1 min. Fluorescence was measured at the end of each 30 s period with an excitation wavelength of 470 nm and an emission wavelength of 620 nm. HER3 and HER2 kinase domain recombinant proteins were diluted in 50 mM Hepes pH 7.5, 150 mM NaCl, 5% glycerol and 1 mM DTT to a concentration of 1.5 μM and then incubated with the indicated concentration of compounds in a total reaction volume of 10 μl, with a final concentration of 2.5X SYPRO Orange (ThermoFisher Scientific) as fluorescence probe. […] We sought to identify compounds binding specifically to HER3. Since HER2 and HER3 are highly homologous EGFR family members, we took forward the 555 compounds identified as stabilising HER3, to be counter screened for HER2 binding. […] Compounds binding to HER2, i.e. inducing a shift in HER2 Tm over 2°C (3×SD) compared with the DMSO neutral control were disregarded (Supplementary Figure S2D). […] A differential scanning fluorimetry (DSF) assay compound screen identifies 428 HER3-preferential binders from a 107 008 compound library. (A) Overview of the screening strategy and hit rate for each step of the screening cascade. […] ApoHER3 (HER3 kinase domain with no ligand) was used as a control for all DSF analyses (mean of ApoHER3 Tm across the plates set at ΔTm = 0°C is indicated by the dash green line) and ΔTm values were calculated for each pool of compounds tested at 30 μM each (N = 1). Cut-off values of ΔTm>3°C and ΔTm < −5°C were used to designate hits (shown as dashed pink lines). The pool of compounds containing proof-of-concept compound AC3573 is circled. Gaps indicate the rare plate failures (three plates). Compounds from these plates were retested during the deconvolution screen. (C) Correlation of shift in HER3 Tm value induced by deconvoluted pool compounds tested at 30 μM between the two repeats of deconvolution screening. AC3573 and its three pool compounds are highlighted. (D) Dose-dependent analysis of thermal shifts induced by AC3573 compound tested at 1, 3, 10 and 30 μM in the HER3 potency screen. The change in HER3 Tm value (ΔTm), compared with ApoHER3 control, is reported as mean ± SD from N = 4 independent experiments. Representative thermal denaturation profiles of recombinant HER3 kinase domain, in the presence of 0.3% DMSO (Apo control), ATP/MgCl2 (ATP control) or AC3573 tested at 1, 3, 10 and 30 μM. (E) Dose-dependent analysis of thermal shifts induced by AC3573 compound tested at 1, 3, 10 and 30 μM in the HER2 counter screen. […]
On the technique in general: The purpose of a counterscreen is to sort out artefacts and off-target activity.

Test [3] deals with T1, HER3. Description: DSF dose-response thermal shift; HDX-MS binding site mapping. More on the design: gene ERBB3.
Setting [4] is: read-out: ΔTm (°C) HER3 potency screen.

On to `NS(=O)(=O)c1cccc(Nc2cc(-c3c[nH]c4ccccc34)ncn2)c1` [AC3573], for which the ΔTm at 30 µM on HER3 [1] was 3.65 ± 0.25 °C; on HER3 [2] (30 uM, potency screen), 3.2 ± 0.24 °C; at HER2 (30 uM) it was 1.95 ± 0.25 °C. Also, the ΔTm at 3 µM was 1.27 ± 0.51 °C at HER3 [2] (3 uM, potency screen) and 0.48 ± 0.52 °C at HER2 (3 uM). In addition, the ΔTm at 1 µM was -1.34 ± 0.48 °C at HER3 [2] (setting [4]) and -0.75 ± 0.18 °C at HER2 (1 uM). Besides, the ΔTm at 10 µM on HER3 [2] (setting [4]) worked out at 3.28 ± 0.62 °C; at HER2 (10 uM), 1.56 ± 0.26 °C. The values for the IC50 at HER2 kinase domain and on HER3 [3] were above 10 µM and around 4 µM, respectively.

The ΔTm is the change in melting temperature against a reference sample. As usually defined, the IC50 is the concentration that inhibits the measured activity by half.
